The results in this text go back to EP0434360A1, “New benziodiazepine analogs” (MERCK & CO. INC., priority 1989, dated 1991).

Structures are written as SMILES. Read-outs that look alike come from different tables or passages of the source.

Assay [1] has as its target T1, CCK receptor (brain, cerebral cortex) (Cavia porcellus, UniProt H0VZC5).
T1 construct: Cerebral cortex was dissected and used as a receptor source; from tissue; host or cells: guinea pig cerebral cortex membrane homogenate
T1 sequence (H0VZC5 1-426): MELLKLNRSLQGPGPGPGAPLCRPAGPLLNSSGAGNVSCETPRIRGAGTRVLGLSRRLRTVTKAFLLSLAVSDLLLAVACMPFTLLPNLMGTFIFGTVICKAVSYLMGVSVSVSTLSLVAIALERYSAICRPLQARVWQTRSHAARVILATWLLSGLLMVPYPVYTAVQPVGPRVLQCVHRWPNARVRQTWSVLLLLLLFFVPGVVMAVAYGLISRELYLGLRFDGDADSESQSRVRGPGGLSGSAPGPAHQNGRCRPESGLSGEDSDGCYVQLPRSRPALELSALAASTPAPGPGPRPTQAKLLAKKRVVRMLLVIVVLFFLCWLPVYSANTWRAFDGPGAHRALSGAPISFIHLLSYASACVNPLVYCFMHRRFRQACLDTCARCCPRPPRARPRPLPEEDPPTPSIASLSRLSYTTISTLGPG
In words: CCK Receptor Binding (Brain), inhibition of 125I-CCK-33 binding. On the set-up: species or system guinea pig. The method, then: 2. CCK Receptor Binding (Brain)
CCK-33 was radiolabeled and the binding was performed according to the description for the pancreas method with modifications according to Saito et al., J. Neurochem. 37: 483-490, 1981.
Male Hartley guinea pigs (300-500 g) were sacrificed by decapitation and the brains were removed and placed in ice-cold 50 mM, Tris HCI plus 7.58 g/l Trizma-7.4 (pH 7.4 at 25°C). Cerebral cortex was dissected and used as a receptor source. Each gram of fresh guinea pig brain tissue was homogenized in 10 ml of Tris/Trizma buffer with a Brinkman polytron PT-10. The homogenates were centrifuged at 42,000 g for 15 minutes. Pellets were resuspended in Tris Buffer, centrifuged as above and resuspended in 200 volumes of binding assay buffer (10 mM N-2-hydroxyethyl-piperazine-N'-2-ethane sulfonic acid (HEPES), 5 mM MgCl2, 0.25 mg/ml bacitracin, 1 mM ethylene glycol-bis-(β-aminoethylether-N,N'-tetraacetic acid) (EGTA), and 0.4% bovine serum albumin (BSA)). […] All assays were run in duplicate or triplicate. The reaction mixtures were incubated at 25°C for 2 hours and centrifuged in a Beckman Microfuge (4 minutes) immediately after adding 1 ml of ice-cold incubation buffer. The supernatant was aspirated and discarded, pellets were counted with a Beckman gamma 5000.

Assay [2] addresses T2, CCK receptor (pancreas) (Rattus norvegicus, UniProt P30551).
T2 construct: The whole pancreas was dissected free of fat tissue and was homogenized; from tissue; host or cells: rat whole pancreas membrane homogenate
T2 sequence (P30551 1-444): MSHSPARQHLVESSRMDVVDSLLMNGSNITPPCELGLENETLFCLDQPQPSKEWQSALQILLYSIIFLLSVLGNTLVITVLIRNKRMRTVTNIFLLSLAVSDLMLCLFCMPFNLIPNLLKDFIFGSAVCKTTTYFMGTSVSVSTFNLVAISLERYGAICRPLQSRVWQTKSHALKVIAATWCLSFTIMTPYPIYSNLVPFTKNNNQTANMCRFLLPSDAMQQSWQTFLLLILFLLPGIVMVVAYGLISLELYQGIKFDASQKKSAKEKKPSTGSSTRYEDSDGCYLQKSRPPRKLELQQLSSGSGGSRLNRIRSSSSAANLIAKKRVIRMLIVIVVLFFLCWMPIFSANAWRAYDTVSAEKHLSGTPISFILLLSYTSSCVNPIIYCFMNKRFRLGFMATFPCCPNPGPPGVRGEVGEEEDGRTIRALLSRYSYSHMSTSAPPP
In words: CCK Receptor Binding (Pancreas), inhibition of 125I-CCK-33 binding. As for the experimental part: 1. CCK Receptor Binding (Pancreas)
CCK-33 was radiolabeled with ^1251-Bolton Hunter reagent (2000 Cilmmole) as described by Sankara et al. (J. Biol. Chem. 254: 9349-9351, 1979). Receptor binding was performed according to Innis and Snyder (Proc. Natl. Acad. Sci. 77 6917-6921, 1980) with the minor modification of adding the additional protease inhibitors, phenyl-methane sulfonyl fluoride and o-phenanthroline.
Male Sprague-Dawley rats (200-350 g) were sacrificed by decapitation. The whole pancreas was dissected free of fat tissue and was homogenized in 20 volumes of ice-cold 50 mM, Tris HCI (pH 7.7 at 25°C) with a Brink- mann Polytron PT 10. The homogenates were centrifuged at 48,000 g for 10 min. Pellets were resuspended in Tris Buffer, centrifuged as above and resuspended in 200 volumes of binding assay buffer (50 mM Tris HCI, pH 7.7 at 25°C, 5 mM dithiothrietol, 0.1 mM bacitracin, 1.2 mM phenyl-methane sulfonyl fluoride and 0.5 mM o-phenanthroline). […] All assays were run in duplicate or triplicate. The reaction mixtures were incubated at 37°C for30 minutes and centrifuged in a Beckman Microfuge (4 minutes) immediately after adding 1 ml of ice-cold incubation buffer. The supernatant was aspirated and discarded, pellets were counted with a Beckman gamma 5000. For Scatchard analysis (Ann. N.Y. Acad. Sci. 51 : 660, 1949), ^125I-CCK-33 was progressively diluted with increasing concentrations of CCK-33.

The target in assay [3] is T3, gastrin receptor (gastric glands) (Cavia porcellus, UniProt H0VZC5).
T3 construct: The washed guinea pig gastric glands prepared as above were resuspended in 25 ml of standard buffer; from tissue; host or cells: isolated guinea pig gastric mucosal glands (collagenase-dispersed)
T3 sequence (H0VZC5 1-426): T1 sequence (H0VZC5 1-426)
Nature of the assay: Gastrin Receptor Binding in Guinea Pig Gastric Glands.

The mark [4] stands for this setting: guinea pig cerebral cortex membranes, 125I-CCK-33, 25°C 2 hours, read-out: IC50(µM) ^125I-CCK Brain.
Setting [5] is: guinea pig gastric mucosal glands, 125I-gastrin, 25°C 30 minutes, read-out: IC50(µM) ^125I-Gastrin Gastric Glands.
The mark [6] stands for this setting: rat pancreas membranes, 125I-CCK-33, 37°C 30 minutes, read-out: IC50(µM) ^125I-CCK Pancreas.

For the compound `CN1C(=O)[C@@H](NC(=O)c2cc3ccccc3n2CC(=O)O)N=C(c2ccccc2)c2ccccc21` [Example 6, 3(S)-3-(2-(N-carboxymethylindole)carbonylamino)-1,3-dihydro-1-methyl-5-phenyl-2H-1,4-benzodiazepin-2-one], the 50% inhibitory concentration (IC50) (usually the midpoint of a concentration-inhibition curve) in assay [1] (setting [4]) was 0.129 µM; in assay [2], 0.00013 µM; in assay [3] (setting [5]), 0.07 µM.

Consider `O=C(NC1N=C(c2ccccc2)c2ccccc2N(CCO)C1=O)c1cc2ccccc2[nH]1` (racemic) [Example 12, (RS)-N-(2,3-Dihydro-1-(2-hydroxyethyl)-2-oxo-5-phenyl-1 H-1,4-benzodiazepin-3-yl)-1 H-indole-2-carboxamide], for which the IC50 in assay [1] (setting [4]) was 0.16 µM; in assay [2], 0.0024 µM; in assay [3] (setting [5]), 0.24 µM.

Take `CN1C(=O)[C@H](NC(=O)Nc2cccc(C(=O)O)c2)N=C(c2ccccc2)c2ccccc21` [Example 10, (R)-3-((((2,3-Dihydro-l-methyl-2-oxo-5-phenyl-1H-1,4-benzodiazepin-3-yl)amino)carbonyl)amino)benzoic a cid]: the results for the half-inhibitory concentration (IC50) in assay [1], in assay [2] (setting [6]) and in assay [3] were 0.0039 µM, 0.049 µM and 0.009 µM, respectively.

Take `CN1C(=O)C(NC(=O)Nc2cc3c(cn2)[nH]c2ccccc23)N=C(c2ccccc2)c2ccccc21` (racemic) [Example 13, (RS)-N-(2,3-Dihydro-1-methyl-2-oxo-5-phenyl-1H-1,4-benzodiazepin-3-yl)-N'-9H-pyrido(3,4-b)indol-3-yl-urea]: the IC50 is 0.071 µM in assay [1], 0.014 µM in assay [2] and 6.4 µM in assay [3] (setting [5]).

Take `Cc1cccc(NC(=O)N[C@@H]2N=C(c3ccccc3)c3ccccc3N(C)C2=O)c1` [Example 5, (R)-N-(2,3-Dihydro-1-methyl-2-oxo-5-phenyl-1 H-1,4-benzodiazepin-3-yl)-N'-(3-methylphenyl)-urea]: the figures for the concentration for half-maximal inhibition (IC50) in assay [1] and in assay [3] were 0.002 µM and 0.0011 µM, respectively.

On to `CN1C(=O)C(NC(=O)c2cc3cc(OCC(=O)O)ccc3[nH]2)N=C(c2ccccc2)c2ccccc21` (stereo not shown) [Example 16, 1,3-Dihydro-3-(5-carboxymethyloxyindole-2-carbonylamino)-1-methyl-5-phenyl-2H-1,4-benzodiazepin 2-one], for which the figures for the IC50 in assay [1] (setting [4]) and in assay [2] were 0.16 µM and 0.023 µM, respectively.

Turning to `COc1cccc(NC(=O)NC2N=C(c3ccccc3)c3ccccc3N(CCN(C)C)C2=O)c1` (stereo not shown) [Example 18, N-(2,3-Dihydro-1-(2-dimethylaminoethyl)-2-oxo-5-phenyl-1H-1,4-benzodiazepin-3-yl) -N'-(3-methoxyphenyl)-urea], the IC50 was 0.024 µM in assay [1], 2.6 µM in assay [2] and 0.01 µM in assay [3].

For `Cc1cccc(NC(=O)NC2N=C(c3ccccc3)c3ccccc3N(CCO)C2=O)c1` (stereo not shown) [Example 17, N-(2,3-Dihydro-1-(2-hydroxyethyl)-2-oxo-5-phenyl-1 H-1,4-benzodiazepin-3-yl)-N'-(3-methylphenyl)-urea], the half-inhibitory concentration (IC50) in assay [1] amounted to 0.012 µM; in assay [2], 0.069 µM; in assay [3] it was 0.0038 µM.

`CN1C(=O)C(NC(=O)Nc2ccc(N)nc2)N=C(c2ccccc2)c2ccccc21` (racemic) [Example 14, (RS)-N-(6-Amino-3-pyridyl)-N'-(2,3-dihydro-l-methyl-2-oxo-5-phenyl-1H-1,4-benzodiazepin-3-yl)-urea]: the IC50 in assay [1] was found to be 0.011 µM; in assay [2] (setting [6]) it was 2.7 µM; in assay [3], 0.4 µM.

With `CCOC(=O)c1cccc(NC(=O)N[C@@H]2N=C(c3ccccc3)c3ccccc3N(C)C2=O)c1` [Example 19, (R)-3-((((2,3-Dihydro-1-methyl-2-oxo-5-phenyl-1H-1,4-benzodiazepin-3-yl)amino)carbonyl)amino)benzoic acid ethyl ester], the half-maximal inhibitory concentration (IC50) in assay [1] (setting [4]) was determined as 0.026 µM; in assay [2] it was 0.02 µM; in assay [3] (setting [5]), 0.018 µM.

As for `CN1C(=O)C(NC(=O)Nc2cccc(C(=O)O)c2)N=C(c2ccccc2)c2ccccc21` (racemic) [Example 9, (RS)-3-((((2,3-Dihydro-1-methyl-2-oxo-5-phenyl-1 H-1,4-benzodiazepin-3-yl)amino)carbonyl)amino)benzoic acid], the figures for the concentration for half-maximal inhibition (IC50) in assay [1], in assay [2] and in assay [3] were 0.0039 µM, 0.049 µM and 0.009 µM, respectively.

With `CN1C(=O)[C@@H](NC(=O)c2cc3ccccc3n2CCCC(=O)O)N=C(c2ccccc2)c2ccccc21` [Example 7, (S)-4-[-2-(((2,3-Dihydro-1-methyl-2-oxo-5-phenyl-1H-1,4-benzodiazepin-3-yl)amino)carbonyl)-1H-indolyl-1]-bu tanoic acid], the concentration for half-maximal inhibition (IC50) in assay [1] (setting [4]) stood at 0.23 µM; in assay [2], 0.0001 µM; in assay [3] (setting [5]) it was 0.24 µM.
